Assay results from paper PMC8464905, “Novel c-Jun N-Terminal Kinase (JNK) Inhibitors with an 11H-Indeno[1,2-b]quinoxalin-11-one Scaffold” (Molecules, 2021).
Like-named read-outs stand apart in the source and are kept apart here.

Columns and labels:
[1] = test system: THP-1Blue cells; test: CellTiter-Glo cytotoxicity in THP-1Blue cells; type: cell-based, human; settings: 24-h incubation, up to 50 μM
Protocol: (§1) All cells were cultured at 37 °C in a humidified atmosphere containing 5% CO2. THP1-Blue cells obtained from InvivoGen (San Diego, CA, USA) were cultured in RPMI 1640 medium (Mediatech Inc., Herndon, VA, USA) supplemented with 10% (v/v) fetal bovine serum (FBS), 100 μg/mL streptomycin, 100 U/mL penicillin, 100 μg/mL phleomycin (Zeocin), and 10 μg/mL blasticidin S. Human monocyte-macrophage MonoMac-6 cells (Deutsche Sammlung von Mikroorganismen und Zellkulturen GmbH, Braunschweig, Germany) were grown in RPMI 1640 medium supplemented with 10% (v/v) FBS, 10 μg/mL bovine insulin, 100 μg/mL streptomycin, and 100 U/mL penicillin.
(§2) Cytotoxicity was analyzed with a CellTiter-Glo Luminescent Cell Viability Assay Kit from Promega (Madison, WI, USA), according to the manufacturer’s protocol. Cells were treated with compounds under investigation and incubated for 24 h. After treatment, the cells were equilibrated to room temperature for 30 min, substrate was added, and the samples were analyzed with a Fluoroscan Ascent FL (Thermo Fisher Scientific, Waltham, MA, USA). The IC50 values were calculated by plotting percentage inhibition against the logarithm of inhibitor concentration (at least five points).

[2] = CellTiter-Glo cytotoxicity in THP-1Blue cells; type: cell-based, human; settings: human, THP-1Blue cells; 24-h incubation, up to 50 μM; read-out: THP-1Blue Cell Cytotoxicity IC50
Protocol: as §1, §2

[3] = CellTiter-Glo cytotoxicity in MonoMac-6 cells; type: cell-based, human; settings: human, MonoMac-6 cells; 24-h incubation, up to 50 μM; read-out: MonoMac-6 Cell Cytotoxicity IC50
Protocol: as §1, §2

[4] = test system: MonoMac-6 cells; test: CellTiter-Glo cytotoxicity in MonoMac-6 cells; type: cell-based, human; settings: 24-h incubation, up to 50 μM
Protocol: as §1, §2

[5] = target: T1, JNK3 (Homo sapiens, UniProt P53779); test: KINOMEscan Kd determination, JNK3; settings: duplicate, mean, N.B. = no binding at < 30 μM
T1 construct: purchased Eurofins Pharma Discovery (KINOMEscan)
Protocol: (§3) Selected compounds were submitted for dissociation constant (Kd) determination using KINOMEscan (Eurofins Pharma Discovery, San Diego, CA, USA), as described previously. […] Primary screening at fixed concentrations of compounds was performed in duplicate.

[6] = target: T2, JNK2 (Homo sapiens, UniProt P45984); test: KINOMEscan Kd determination, JNK2; settings: duplicate, mean, N.B. = no binding at < 30 μM
T2 construct: purchased Eurofins Pharma Discovery (KINOMEscan)
Protocol: as §3

[7] = target: T3, JNK1 (Homo sapiens, UniProt P45983); test: KINOMEscan Kd determination, JNK1; settings: duplicate, mean, N.B. = no binding at < 30 μM
T3 construct: purchased Eurofins Pharma Discovery (KINOMEscan)
Protocol: as §3

[8] = test system: JNK1-3; test: KINOMEscan binding, statements for all three JNK isoforms; settings: summary of Table 3
Protocol: as §3

[9] = test system: NF-κB/AP-1; test: LPS-induced NF-κB/AP-1 alkaline phosphatase reporter assay in THP1-Blue cells; type: cell-based; settings: Homo sapiens; 30 min pretreatment, 250 ng/mL LPS for 24 h; read-out: THP-1Blue Cell NF-κB/AP-1 IC50
Protocol: as §1
Activation of AP-1/NF-κB was measured using an alkaline phosphatase reporter gene assay in THP1-Blue cells. Human monocytic THP-1 Blue cells are stably transfected with a secreted embryonic alkaline phosphatase gene that is under the control of a promoter inducible by NF-κB/AP-1. THP1-Blue cells (2 × 10^5 cells/well) were pretreated with test compound or DMSO for 30 min, followed by addition of 250 ng/mL lipopolysaccharide (LPS) for 24 h, and alkaline phosphatase activity was measured in cell supernatants using QUANTI-Blue mix (InvivoGen) as absorbance at 655 nm and compared with positive control samples (LPS). For selected compounds, the concentrations of inhibitor that caused 50% inhibition of the NF-κB reporter activity (IC50) were calculated.

[10] = test system: IL-6; test: LPS-induced IL-6 production in MonoMac-6 cells (ELISA); type: cell-based; settings: Homo sapiens, MONO-MAC-6; 30 min pretreatment, 250 ng/mL LPS for 24 h; read-out: MonoMac-6 Cell IL-6 IC50
Protocol: as §1
A human IL-6 ELISA kit (BD Biosciences, San Jose, CA, USA) was measure IL-6 production. MonoMac-6 cells were plated in 96-well plates at a density of 2 × 10^5 cells/well in culture medium supplemented with 3% (v/v) endotoxin-free FBS. The cells were pretreated with test compound or DMSO for 30 min, followed by addition of 250 ng/mL LPS for 24 h. IC50 values for IL-6 production were calculated by plotting percentage inhibition against the logarithm of inhibitor concentration (at least five points).

[11] = target: T1, JNK3; settings: previously identified inhibitors; ref [35],[36]; cited from earlier work
[12] = target: T3, JNK1; settings: previously identified inhibitors; ref [35],[36]; cited from earlier work
[13] = target: T2, JNK2; settings: previously identified inhibitors; ref [35],[36]; cited from earlier work
[14] = test system: phospho-c-Jun (Ser63); test: LPS-induced c-Jun (Ser63) phosphorylation in MonoMac-6 cells (Western blotting); type: cell-based, human; settings: 30 min pretreatment, LPS 250 ng/mL 30 min
Protocol: MonoMac-6 monocytic cells were pretreated with different concentrations of the compounds under investigation for 30 min and treated with LPS (250 ng/mL) or vehicle for another 30 min. Cells were washed twice with Hanks’ balanced salt solution, and cell lysates were prepared using lysis buffer from the JNK kinase assay kit (Cell Signaling Technology, Danvers, MA). Cell lysates (from 5 × 10^6 cells) were separated on ExpressPlus 4–20% PAGE Gels (GenScript, Piscataway, NJ, USA) using TRIS-MOPS running buffer (GenScript) and transferred to nitrocellulose membranes. The blots were probed with antibodies against c-Jun, phospho-c-Jun (Ser63), and total c-Jun (Cell Signaling Technology, Danvers, MA, USA), followed by horseradish peroxidase-conjugated secondary antibody (Cell Signaling Technology). The blots were developed using SuperSignal West Femto chemiluminescent substrate (Thermo Fisher Scientific) and visualized with a FluorChem FC2 imaging system (Alpha Innotech Corporation, San Leandro, CA, USA). Quantitation of the chemiluminescent signal was performed using AlphaView software (ver. 3.0; Alpha Innotech).

T2 sequence (P45984 whole entry): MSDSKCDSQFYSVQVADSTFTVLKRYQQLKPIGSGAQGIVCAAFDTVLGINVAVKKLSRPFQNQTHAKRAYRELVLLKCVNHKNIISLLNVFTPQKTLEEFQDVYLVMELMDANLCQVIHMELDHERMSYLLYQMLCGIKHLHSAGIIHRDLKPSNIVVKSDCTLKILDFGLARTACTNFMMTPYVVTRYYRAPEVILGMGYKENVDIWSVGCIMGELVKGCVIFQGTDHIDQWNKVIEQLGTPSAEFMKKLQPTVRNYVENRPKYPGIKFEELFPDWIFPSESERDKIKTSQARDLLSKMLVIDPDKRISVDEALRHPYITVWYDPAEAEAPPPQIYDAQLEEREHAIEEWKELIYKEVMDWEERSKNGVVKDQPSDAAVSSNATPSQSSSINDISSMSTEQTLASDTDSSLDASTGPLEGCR
T1 sequence (P53779 whole entry): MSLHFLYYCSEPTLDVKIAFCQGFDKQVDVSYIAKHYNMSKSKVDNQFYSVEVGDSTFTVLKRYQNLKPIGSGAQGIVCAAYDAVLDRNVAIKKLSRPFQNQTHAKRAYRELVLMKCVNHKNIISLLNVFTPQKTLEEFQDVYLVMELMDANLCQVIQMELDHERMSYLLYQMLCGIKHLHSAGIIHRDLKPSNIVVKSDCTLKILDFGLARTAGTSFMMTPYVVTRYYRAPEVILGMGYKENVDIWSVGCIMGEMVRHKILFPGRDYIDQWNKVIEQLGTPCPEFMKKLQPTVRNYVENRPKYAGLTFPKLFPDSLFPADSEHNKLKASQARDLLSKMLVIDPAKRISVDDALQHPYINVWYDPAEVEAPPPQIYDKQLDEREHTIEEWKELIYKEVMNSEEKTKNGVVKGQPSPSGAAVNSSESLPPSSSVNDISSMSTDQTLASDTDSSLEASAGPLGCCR
T3 sequence (P45983 whole entry): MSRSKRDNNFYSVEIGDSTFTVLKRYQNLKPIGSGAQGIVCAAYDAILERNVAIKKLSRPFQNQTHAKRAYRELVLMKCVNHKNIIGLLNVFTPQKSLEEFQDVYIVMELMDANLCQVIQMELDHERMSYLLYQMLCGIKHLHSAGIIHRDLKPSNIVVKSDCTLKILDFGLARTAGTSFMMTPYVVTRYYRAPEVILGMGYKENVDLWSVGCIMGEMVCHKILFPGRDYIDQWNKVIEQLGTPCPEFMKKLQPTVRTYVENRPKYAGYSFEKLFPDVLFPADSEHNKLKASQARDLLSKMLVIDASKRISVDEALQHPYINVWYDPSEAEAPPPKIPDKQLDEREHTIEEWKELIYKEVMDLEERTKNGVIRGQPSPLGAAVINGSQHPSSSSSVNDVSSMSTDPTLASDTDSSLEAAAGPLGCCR

Structure (SMILES)	Kd [5] [nM]	Kd [6] [nM]	Kd [7] [nM]	melting point [°C]	Binding affinity (Kd) for all three JNK isoforms, in words [8]	IC50 [9] [nM]	IC50 [10] [nM]	JNK2 Kd [6]	THP-1Blue Cell Cytotoxicity IC50 [1]	IC50 at 24 h [2] [nM]	IC50 at 24 h [3] [nM]	MonoMac-6 Cell Cytotoxicity IC50 [4]	Kd [11] [nM]	Kd [12] [nM]	Kd [13] [nM]	Effect on LPS-induced c-Jun (Ser63) phosphorylation [14]
Cc1cc(Br)cc2nc3c(nc12)-c1ccccc1C3=NO [Compound 4c, 6-Methyl-8-bromo-11H-indeno[1,2-b]quinoxalin-11-one Oxime]	> 30000	> 30000	> 30000	255 to 256	inactive				exhibited cytotoxicity	37500 ± 1700	14600 ± 1200	cytotoxic				
ON=C1c2ccccc2-c2nc3c(C(F)(F)F)cc(C(F)(F)F)cc3nc21 [Compound 4j, 6,8-bis(Trifluoromethyl)-11H-indeno[1,2-b]quinoxalin-11-one oxime]	> 30000	> 30000	> 30000	253 to 254	inactive		4800 ± 500		exhibited cytotoxicity	36500 ± 1900	> 50000					
Cc1ccc2nc3c(nc2c1)-c1ccccc1/C3=N/O [D]													300	700	800	
CC(C)(C)c1ccc2nc3c(nc2c1)-c1ccccc1/C3=N/O [Compound 4d, (11Z/E)-7-tert-Butyl-11H-indeno[1,2-b]quinoxalin-11-one Oxime]	3100 ± 200	1600 ± 600	3100 ± 100	197 to 198	relatively low affinity	400 ± 100	1000 ± 200			> 50000	> 50000					
ON=C1c2ccccc2-c2nc3c(Cl)cccc3nc21 [Compound 4b, 6-Chloro-11H-indeno[1,2-b]quinoxalin-11-one Oxime]	140 ± 30	220 ± 60	170 ± 40	270 to 271	submicromolar	900 ± 300	1200 ± 400			> 50000	> 50000					
O=[N+]([O-])c1ccc2nc3c(nc2c1)-c1ccccc1/C3=N/O [B]													4300	6000	12000	
COC(=O)c1ccc2nc3c(nc2c1)C(=NO)c1ccccc1-3 [Compound 4l, Methyl-11-(hydroxyimino)-11H-indeno[1,2-b]quinoxaline-8-carboxylate]	710 ± 50	2400 ± 200	910 ± 160	300 to 301	submicromolar		> 50000		exhibited cytotoxicity	26100 ± 5300	> 50000					
ON=C1c2ccccc2-c2nc3c(Br)cc(C(F)(F)F)cc3nc21 [Compound 4h, 6-Bromo-8-(trifluoromethyl)-11H-indeno[1,2-b]quinoxalin-11-one Oxime]	> 30000	> 30000	> 30000	236 to 237	inactive	2500 ± 600				> 50000	29000 ± 2500	cytotoxic				
O/N=C1/c2ccccc2-c2nc3ccc(Cl)cc3nc21 [C]													700	1100	21500	

Continued, in another order:

Kd [5] [nM]	Kd [6] [nM]	Kd [7] [nM]	melting point [°C]	Binding affinity (Kd) for all three JNK isoforms, in words [8]	IC50 [9] [nM]	IC50 [10] [nM]	JNK2 Kd [6]	Structure (SMILES)	THP-1Blue Cell Cytotoxicity IC50 [1]	IC50 at 24 h [2] [nM]	IC50 at 24 h [3] [nM]	MonoMac-6 Cell Cytotoxicity IC50 [4]	Kd [11] [nM]	Kd [12] [nM]	Kd [13] [nM]	Effect on LPS-induced c-Jun (Ser63) phosphorylation [14]
> 30000	> 30000	> 30000	324 to 325	inactive	2900 ± 900	6200 ± 200		O/N=C1/c2ccccc2-c2nc3c(Cl)cc(C(F)(F)F)cc3nc21 [Compound 4i, (11Z/E)-6-Chloro-8-(trifluoromethyl)-11H-indeno[1,2-b]quinoxalin-11-one Oxime]		> 50000	> 50000					
1100 ± 100	910 ± 60	520 ± 90	257 to 258		2100 ± 400			ON=C1c2ccccc2-c2nc3c(F)c(F)ccc3nc21 [Compound 4g, 6,7-Difluoro-11H-indeno[1,2-b]quinoxalin-11-one Oxime]		> 50000	32000 ± 2200	cytotoxic				
520 ± 300	> 30000	170 ± 40	250 to 251		1100 ± 400	14000 ± 2800	did not bind	ON=C1c2ccccc2-c2nc3cc(F)c(F)cc3nc21 [Compound 4f, 7,8-Difluoro-11H-indeno[1,2-b]quinoxalin-11-one Oxime]		> 50000	> 50000					inhibited c-Jun phosphorylation
900 ± 300	1600 ± 10	920 ± 50	255 to 256	submicromolar	400 ± 100	2200 ± 200		ON=C1c2ccccc2-c2nc3c(F)cc(F)cc3nc21 [Compound 4e, 6,8-Difluoro-11H-indeno[1,2-b]quinoxalin-11-one Oxime]		> 50000	> 50000					
24500 ± 2100	> 30000	> 30000	276 to 277		600 ± 200	2300 ± 400		ON=C1c2ccccc2-c2nc3cc(F)c(Cl)cc3nc21 [Compound 4k, 8-Chloro-7-fluoro-11H-indeno[1,2-b]quinoxalin-11-one Oxime]		> 50000	> 50000					
190 ± 10	620 ± 10	280 ± 70	250 to 251	submicromolar	300 ± 100	3000 ± 600		ON=C1c2ccccc2-c2nc3cc(F)ccc3nc21 [Compound 4a, 7-Fluoro-11H-indeno[1,2-b]quinoxalin-11-one Oxime]		> 50000	> 50000					
